Measured values as given in ChEMBL document CHEMBL5678811 (Invest New Drugs, 2014).
Calls of active or inactive are those of the source. The rule behind the calls is not given here.

How the values were obtained:
MV4-11 [1] = experiment: Cell cycle arrest in human MV4-11 cells assessed as accumulation of cells at G2/M-phase at 0.08 uM measured after 24 hrs by propidium iodide staining based flow cytometry (reference value: 15.23%); type: functional
MV4-11 [2] = experiment: Cell cycle arrest in human MV4-11 cells assessed as accumulation of cells at G1-phase at 0.16 uM measured after 24 hrs by propidium iodide staining based flow cytometry (reference value: 61.42%); type: functional
MV4-11 [3] = experiment: Cell cycle arrest in human MV4-11 cells assessed as accumulation of cells at G2/M-phase at […] measured after 24 hrs by propidium iodide staining based flow cytometry (reference value: 15.23%); type: functional; settings: dose 0.625 µM
MV4-11 [4] = experiment: Cell cycle arrest in human MV4-11 cells assessed as accumulation of cells at S-phase at […] measured after 24 hrs by propidium iodide staining based flow cytometry (reference value: 23.35%); type: functional; settings: dose 0.625 µM
MV4-11 [5] = experiment: Cell cycle arrest in human MV4-11 cells assessed as accumulation of cells at G2/M-phase at 1.25 uM measured after 24 hrs by propidium iodide staining based flow cytometry (reference value: 15.23%); type: functional
MV4-11 [6] = experiment: Cell cycle arrest in human MV4-11 cells assessed as accumulation of cells at G1-phase at 2.5 uM measured after 24 hrs by propidium iodide staining based flow cytometry (reference value: 61.42%); type: functional
MDA-MB-231 = experiment: Cell cycle arrest in human MDA-MB-231 cells assessed as accumulation of cells at G2/M-phase at 2.5 uM measured after 24 hrs by propidium iodide staining based flow cytometry (reference value: 11.46%); type: functional
COLO 205 [7] = experiment: Antitumor activity against human COLO 205 cells xenografted in CD1 nu/nu mouse assessed as tumor growth inhibition at 25 to 100 mg/kg, po administered once daily via gavage for 21 days measured twice per week during compound dosing; type: functional, organism-based; settings: dose 25-100 mg/kg, time 21.0 day
[8] = Toxicity in human COLO 205 cells xenografted CD1 nu/nu mouse assessed as body weight loss at 25 to 100 mg/kg, po administered once daily via gavage for 21 days measured twice per week during compound dosing; type: organism-based; settings: in vivo, dose 25-100 mg/kg, time 21 day
[9] = Toxicity in human COLO 205 cells xenografted CD1 nu/nu mouse at 25 to 100 mg/kg, po administered once daily via gavage for 21 days; type: organism-based; settings: in vivo, dose 25-100 mg/kg, time 21 day
[10] = Toxicity in human COLO 205 cells xenografted CD1 nu/nu mouse assessed as decrease in red cell mass at 50 mg/kg, po administered daily via gavage for 56 days and measured on day 41 to 69 by hematological analysis; type: organism-based; settings: in vivo, 1344 h, time 41-69 day
[11] = Toxicity in human COLO 205 cells xenografted CD1 nu/nu mouse assessed as decrease in lymphocyte count at 50 mg/kg, po administered daily via gavage for 2 cycles of 3 weeks on/1 week rest and measured on day 41 to 69 by hematological analysis; type: organism-based; settings: in vivo, time 41-69 day
COLO 205 [12] = settings: Mus musculus, CD1, dose 50.0 mg/kg, route po, time lower 1.0 hrs, time upper […], TDE = time-dependent effect
COLO 205 [13] = settings: Mus musculus, CD1, dose 25-50 mg/kg, route po
COLO 205 [14] = settings: Mus musculus, CD1, dose 25-50 mg/kg, route po; remark: listed apart in the source
COLO 205 [15] = settings: Mus musculus, CD1, dose 50.0 mg/kg, route po
COLO 205 [16] = settings: Mus musculus, CD1, dose 50.0 mg/kg, route po; remark: listed apart in the source
Mus musculus [17] = organism: Mus musculus; settings: CD1, dose 50.0 mg/kg, route po, time 22.0 day
Mus musculus [18] = organism: Mus musculus; settings: CD1, dose 50.0 mg/kg, route po, time 17.0 day
[19] = molecular target: T1, Serine/threonine-protein kinase 17A (Homo sapiens) (UniProt Q9UEE5); settings: Sf21, dose 200.0 nM
T1 sequence (whole entry): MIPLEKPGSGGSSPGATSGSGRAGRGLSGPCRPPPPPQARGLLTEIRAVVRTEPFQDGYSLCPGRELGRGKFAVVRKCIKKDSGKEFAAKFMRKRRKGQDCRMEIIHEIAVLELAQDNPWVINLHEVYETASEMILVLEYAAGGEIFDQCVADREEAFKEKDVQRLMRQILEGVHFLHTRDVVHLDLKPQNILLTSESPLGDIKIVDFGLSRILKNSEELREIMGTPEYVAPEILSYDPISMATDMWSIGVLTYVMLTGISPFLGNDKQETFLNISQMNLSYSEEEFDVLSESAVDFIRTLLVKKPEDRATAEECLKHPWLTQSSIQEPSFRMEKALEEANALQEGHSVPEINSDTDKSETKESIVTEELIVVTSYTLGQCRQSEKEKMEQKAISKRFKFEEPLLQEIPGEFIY
Description: Inhibition of recombinant human full-length N-terminal 6His-tagged DRAK1 expressed in baculovirus infected Sf21 cells at 200 nM using ZIPtide as substrate relative to control

For `CCN1CCN(Cc2ccc(Nc3ncc(F)c(-c4cc(F)c5nc(C)n(C(C)C)c5c4)n3)nc2)CC1` [ABEMACICLIB], the Activity (MV4-11 [1]) was 1.97%, the Activity (MV4-11 [2]) was 92.68% and the Activity (MV4-11 [3]) was 1.78%. For the same compound, the Activity (MV4-11 [4]) was 3.6%, the Activity (MV4-11 [5]) was 1.84% and the Activity (MV4-11 [6]) was 94.06%. For the same compound, the Activity (MDA-MB-231) was 5.77%, the TGI (COLO 205 [7]) was “Active” and the Activity [8] was “Non-Toxic”. The Activity [9] was “Non-Toxic”, the Activity [10] was “Non-Toxic” and the Activity [11] was “Non-Toxic”. For the same compound, the inhibition (COLO 205 [12]) was “Tde”, the inhibition (COLO 205 [13]) was “Dose-Dependent Effect” and the inhibition (COLO 205 [14]) was “Dose-Dependent Effect”. The inhibition (COLO 205 [15]) was “inactive”, the inhibition (COLO 205 [16]) was “inactive” and the inhibition (Mus musculus [17]) was “inactive”. The inhibition (Mus musculus [18]) was “Active” and the inhibition [19] was greater than 90%.
